No end group written: not given here. *: point of attachment. Palmitoyl = CCCCCCCCCCCCCCCC(=O)*; Oleyl = CCCCCCCC/C=C\CCCCCCCC*

What all share (type): cell-based, human
One assay relates to type I collagen. The assay can be described thus: Type I collagen synthesis by Pal-YIGSR peptide, immunoblotting in Hs27 skin fibroblasts. Particulars: for effect compared with the original YIGSR peptide: collagen I production, summary statement b41. The protocol: Hs27 skin fibroblasts, which are under culture, were treated with the peptide derivatives prepared in Examples 1 and 2, and Comparative Example 2, and an amount of expressed type I collagen in the cells were measured by an immunoblotting method. The Hs27 skin fibroblasts were cultured by using DMEM medium, (Lonza, USA), to which 10% FBS was added (Lonza, USA), under the condition of 95% of humidity, 5% CO2, and 37° C. Hs27 skin fibroblasts were treated with each concentration of the peptide (0, 2, 25, 50 and 100 μM) for 24 hours or 100 μM of the peptide for each period of time (0, 0.5, 6, 12 and 24 hours). Then, the treated cells were sonicated in the lysis buffer (150 mM NaCl, 1% Triton X-100, 10 mM Tris, 1 mM EDTA, pH 7.4). Thereafter, supernatant was isolated through centrifugation, and quantification was performed through Bradford assay. The same amount of a protein was mixed in a 5× sample buffer and the mixture was heated for 5 minutes at 95° C. The resultant was electrophoresed on 6-15% concentration gradient SDS-Polyacrylamide gel electrophoresis (SDS-PAGE) and then adsorbed to a nitrocellulose membrane. Anti-type I collagen primary antibody (Rockland, USA), anti-phospho-ERK primary antibody (Cell signaling, USA), and anti-actin primary antibody (Santa Cruz, USA) were diluted in TBST buffer (Tris buffered saline with 0.05% Tween 20, pH 7.6) including 5% skimmed milk and reacted for 16 hours. Then, the resultant was washed with TBST for 10 minutes 6 times. Then, the membrane was treated with anti-mouse rabbit peroxidase-conjugated secondary antibody (KPL, USA) for reaction for one hour at room temperature, and washed again with TBST 6 times for 10 minutes followed by development with the enhanced chemiluminescent (ECL) solution (Amersham, USA) for evaluation.
For orientation: In western blotting, separated proteins are transferred to a membrane and probed.

The subject of the next assay is ERK. The assay can be described thus: ERK phosphorylation by Pal-YIGSR peptide, immunoblotting in Hs27 skin fibroblasts. Particulars: FIG. 8. The protocol: Hs27 skin fibroblasts, which are under culture, were treated with the peptide derivatives prepared in Examples 1 and 2, and Comparative Example 2, and an amount of expressed type I collagen in the cells were measured by an immunoblotting method. The Hs27 skin fibroblasts were cultured by using DMEM medium, (Lonza, USA), to which 10% FBS was added (Lonza, USA), under the condition of 95% of humidity, 5% CO2, and 37° C. Hs27 skin fibroblasts were treated with each concentration of the peptide (0, 2, 25, 50 and 100 μM) for 24 hours or 100 μM of the peptide for each period of time (0, 0.5, 6, 12 and 24 hours). Then, the treated cells were sonicated in the lysis buffer (150 mM NaCl, 1% Triton X-100, 10 mM Tris, 1 mM EDTA, pH 7.4). Thereafter, supernatant was isolated through centrifugation, and quantification was performed through Bradford assay. The same amount of a protein was mixed in a 5× sample buffer and the mixture was heated for 5 minutes at 95° C. The resultant was electrophoresed on 6-15% concentration gradient SDS-Polyacrylamide gel electrophoresis (SDS-PAGE) and then adsorbed to a nitrocellulose membrane. […]

In a further assay the test system is Hs27 skin fibroblasts. The assay is described as follows: Cell growth by crystal violet assay. Particulars: 72 hours. As to the method:
The Hs27 skin fibroblasts were seeded on a 24-well culture plate (40,000 cells per each), and cultured under 5% CO2, and 37° C. for 24 hours to allow cells to be attached to a bottom of the culture plate. Next day, a medium was changed to a medium including FBS. Then, cells were cultured again for 24 hours and treated with the peptide derivatives of Examples 1 and 2, and Comparative Examples 1 and 2 followed by further culture of 72 hours. Then, cell growth was measured through crystal violet assay.
Specifically, the medium in each well was removed, and […] of 0.1% crystal violet solution was added to each well followed by 5 minutes of staining. Then, the crystal violet solution was removed, and wells were washed with deionized water four times until the well became transparent. When the washed distilled water became transparent, distilled water was removed. Then, 1 ml of 95% ethanol was added with stirring for 20 minutes to dissolve crystal violet from stained cells. […] of the solution was dispensed to a 96-well plate, and absorbance was measured at 590 nm by using ELISA reader. Then, relative cell growth was calculated by using, as a control, a group which was not treated with a material to be tested.

The next assay deals with collagen. The assay is described as follows: Influence of palmitoyl group: collagen synthesis by RGD and Pal-RGD peptides. Particulars: FIG. 10. As to the method: Then, the treated cells were sonicated in the lysis buffer (150 mM NaCl, 1% Triton X-100, 10 mM Tris, […], pH 7.4). Thereafter, supernatant was isolated through centrifugation, and quantification was performed through Bradford assay. The same amount of a protein was mixed in a 5× sample buffer, and the mixture was heated for 5 minutes at 95° C. The resultant was electrophoresed on 6-15% concentration gradient SDS-polyacrylamide gel electrophoresis (SDS-PAGE), and then adsorbed to a nitrocellulose membrane. An anti-type I collagen primary antibody (Rockland, USA) and anti-actin primary antibody (Santa Cruz, USA) were diluted in TBST buffer (Tris buffered saline with 0.05% Tween 20, pH 7.6) including 5% skimmed milk and reacted for 16 hours. Then, the resultant was washed with TBST for 10 minutes 6 times. Thereafter, the membrane was treated with an anti-mouse rabbit peroxidase-conjugated secondary antibody (KPL, USA) for reaction for one hour at room temperature, and washed again with TBST 6 times for 10 minutes followed by development with the enhanced chemiluminescent (ECL) solution (Amersham, USA) for evaluation. In addition, the western blot image was quantitatively compared with densitometric analysis by using image J program (Ver 1.38, //rsbweb.nih.gov/ij/index.html). […]

Assay [1] has as its system collagen I expression induced by YIGSR peptide. The assay is described as follows: YIGSR peptide-induced collagen I expression under FAK and MEK inhibitors, western blot. To be noted: Hs27 cells, 1 μM inhibitor with 1 μM YIGSR peptide, 24 hours. The protocol:
To evaluate whether collagen I expression induced by YIGSR peptide according to one embodiment of the present invention is mediated by FAK and MAPK or not, FAK and MEK inhibitors were used.
Hs27 cells of Example 3 were cultured in a 24-well plate provided that the cells were cultured in a serum-free state for 24 hours. Then, the cells were treated with 1 μM of the FAK-specific inhibitor, PF573228 (Tocris Bioscience, United Kingdom) for 24 hours.

As to “Palmitoyl-YIGSR [Pal-YIGSR, peptide derivative in which a palmitoyl group is attached to an N-terminal of the YIGSR peptide]”, the “amount of synthesized collagen depending on concentration” value in the assay on type I collagen (0, 2, 25, 50 and 100 μM, 24 hours) is listed as “increased as concentration increased”. Moreover, the “amount of synthesized collagen depending on exposure time” value with type I collagen (100 μM, 0, 0.5, 6, 12 and 24 hours) was “increased as exposure time increased”. Also, the “effect compared with the original YIGSR peptide” value in the assay with type I collagen is on record as “more potent effect than the YIGSR peptide”. Moreover, in the assay with ERK, the ERK phosphorylation induction entry was “observed”. Besides, the “cell growth relative to untreated control” value is recorded as 13% with Hs27 skin fibroblasts (100 μM) and 23% with Hs27 skin fibroblasts (500 μM). Moreover, in the assay on Hs27 skin fibroblasts, the “concentration range in which cell growth was shown” value was 0.5 to 50 µM.

Turning to RGD [RGD peptide], the “collagen synthesis degree versus control” value in the assay with collagen is reported as “not significantly different from that of the control”.

For the compound Pal-RGD [Pal-RGD peptide], in the assay with collagen, the “collagen synthesis degree versus control” value is listed as “not significantly different from that of the control”.

Consider “Oleyl-YIGSR [YIGSR peptide having an N-terminal, to which an oleyl group is added instead of the palmitoyl group]”, for which the “degree of collagen synthesis compared with control and Pal-YIGSR” value with type I collagen (Hs27 skin fibroblasts, FIG. 7) is “no difference from the control”. The “effect compared with the original YIGSR peptide” value in the assay on type I collagen is “no improved activity”. Also, the ERK phosphorylation induction result in the assay with ERK is recorded as “rarely affect ERK phosphorylation”.

In the case of `COc1cccc(-c2cc(=O)c3ccccc3o2)c1N` [PD98059], the “effect of inhibitor on collagen I expression induced by YIGSR peptide” value in assay [1] was “remarkably inhibited”.

With `CS(=O)(=O)c1cccc(CNc2nc(Nc3ccc4c(c3)CCC(=O)N4)ncc2C(F)(F)F)c1` [PF573228], the “effect of inhibitor on collagen I expression induced by YIGSR peptide” value in assay [1] is “remarkably repressed”.

For the origin of these results see patent US9999649B2, “Peptide having ability to synthesize collagen and use thereof” (NOVACELL TECHNOLOGY INC., priority 2013, dated 2018).
